One test deals with Coagulation factor X (Homo sapiens, UniProt P00742). As to the kind of experiment: Tested in vitro for the inhibitory potency against Coagulation factor Xa.
The target in a further test is Serine protease 1 (Homo sapiens, UniProt P07477). The test is described as follows: Tested in vitro for the selectivity against trypsin (Trp).
For the next test, the target named is Prothrombin (Homo sapiens, UniProt P00734). The test is described as follows: Tested in vitro for the selectivity against thrombin (IIa).

Experimental findings from ChEMBL document CHEMBL1135304, “Benzimidazole-based fXa inhibitors with improved thrombin and trypsin selectivity” (Bioorg Med Chem Lett, 2002) are described below.

The term Ki denotes a measure of affinity in units of concentration, obtained from inhibition or displacement. Read a high Ki as weaker binding.

Chain of Coagulation factor X (P00742 41-179 limits assumed): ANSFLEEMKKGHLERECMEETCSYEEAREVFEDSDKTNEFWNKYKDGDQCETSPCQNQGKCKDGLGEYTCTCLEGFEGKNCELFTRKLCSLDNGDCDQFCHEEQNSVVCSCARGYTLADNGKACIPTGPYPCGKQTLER
Chain of Coagulation factor X (P00742 235-488 limits assumed): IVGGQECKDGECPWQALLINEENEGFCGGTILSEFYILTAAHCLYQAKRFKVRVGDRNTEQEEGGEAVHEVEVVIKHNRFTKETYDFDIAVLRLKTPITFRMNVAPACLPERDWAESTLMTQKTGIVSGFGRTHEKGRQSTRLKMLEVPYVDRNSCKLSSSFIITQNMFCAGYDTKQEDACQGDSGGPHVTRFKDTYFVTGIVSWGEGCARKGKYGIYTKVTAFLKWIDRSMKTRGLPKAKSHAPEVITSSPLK
Chain of Serine protease 1 (P07477 whole entry): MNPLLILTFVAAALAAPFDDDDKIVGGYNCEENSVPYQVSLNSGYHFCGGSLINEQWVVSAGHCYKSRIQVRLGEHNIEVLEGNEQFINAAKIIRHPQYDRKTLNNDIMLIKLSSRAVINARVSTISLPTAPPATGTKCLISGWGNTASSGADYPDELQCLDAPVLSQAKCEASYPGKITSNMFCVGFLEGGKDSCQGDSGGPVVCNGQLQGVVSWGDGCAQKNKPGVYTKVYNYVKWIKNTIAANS

For the compound `CCc1nc2c(N(C)C)c(OC3CCN(C(C)=N)CC3)ccc2n1Cc1ccc2ccc(C(=N)N)cc2c1`, the Ki is 5 nM at Coagulation factor X, 10 nM at Serine protease 1 and above 5000 nM at Prothrombin.
For the compound `CCc1nc2ccc(OC3CCN(C(C)=N)CC3)cc2n1Cc1ccc(-c2cccc(C(=N)N)c2)cc1`, the Ki at Coagulation factor X stood at 2.2 nM; at Serine protease 1, 73 nM; on Prothrombin it was 770 nM.
With `CCc1nc2cc(OC3CCN(C(C)=N)CC3)ccc2n1Cc1ccc2ccc(C(=N)N)cc2c1`, the figures for the Ki at Serine protease 1 and at Prothrombin were 5 nM and 2000 nM, respectively.
Take `CCc1nc2cc(OC3CCN(C(C)=N)CC3)ccc2n1Cc1ccc(-c2ccc(C(=N)N)cc2)cc1`: the Ki at Coagulation factor X stood at 670 nM; at Serine protease 1, 150 nM; on Prothrombin, 1500 nM.
For `CCc1nc2c([N+](=O)[O-])c(OC3CCN(C(C)=N)CC3)ccc2n1Cc1ccc2ccc(C(=N)N)cc2c1`, the values for the Ki on Coagulation factor X, at Serine protease 1 and at Prothrombin were 0.1 nM, 5 nM and 3000 nM, respectively.
With `CCc1nc2ccc(OC3CCN(C(C)=N)CC3)cc2n1Cc1ccc(-c2ccc(C(=N)N)cc2)cc1`, the figures for the Ki at Coagulation factor X, on Serine protease 1 and at Prothrombin were 180 nM, 91 nM and 22 nM, respectively.
`CC(=N)N1CCC(Oc2ccc3c(nc(C)n3Cc3ccc4ccc(C(=N)N)cc4c3)c2[N+](=O)[O-])CC1`: the Ki on Serine protease 1 is 3 nM; at Prothrombin, above 5000 nM.
On the same counts, the results for `CCc1nc2cc(OC3CCN(C(C)=N)CC3)ccc2n1Cc1cccc(-c2cccc(C(=N)N)c2)c1` are 67 nM and 1120 nM.
Turning to `CCc1nc2cc(OC3CCN(C(C)=N)CC3)ccc2n1Cc1cccc(-c2ccc(C(=N)N)cc2)c1`, the Ki was 260 nM on Coagulation factor X, 690 nM at Serine protease 1 and above 5000 nM on Prothrombin.
Take `CCc1nc2c(N)c(OC3CCN(C(C)=N)CC3)ccc2n1Cc1ccc2ccc(C(=N)N)cc2c1`: the Ki came out at 8 nM on Coagulation factor X, 24 nM on Serine protease 1 and 3500 nM on Prothrombin.
For `CCc1nc2ccc(OC3CCN(C(C)=N)CC3)cc2n1Cc1cccc(-c2ccc(C(=N)N)cc2)c1`, the Ki on Coagulation factor X turned out to be 150 nM; at Serine protease 1 it was 430 nM; on Prothrombin it was 3600 nM.
For the compound `CCc1nc2c(NC(C)=O)c(OC3CCN(C(C)=N)CC3)ccc2n1Cc1ccc2ccc(C(=N)N)cc2c1`, the Ki at Coagulation factor X was 50 nM; at Serine protease 1, 25 nM; on Prothrombin, above 5000 nM.
Regarding `CCc1nc2c(N(CC(=O)O)CC(=O)O)c(OC3CCN(C(C)=N)CC3)ccc2n1Cc1ccc2ccc(C(=N)N)cc2c1`, the Ki was 50 nM on Coagulation factor X, 15 nM on Serine protease 1 and above 5000 nM on Prothrombin.
As to `CCc1nc2ccc(OC3CCN(C(C)=N)CC3)cc2n1Cc1cccc(-c2cccc(C(=N)N)c2)c1`, the values for the inhibitory constant (Ki) at Coagulation factor X, on Serine protease 1 and at Prothrombin were 34 nM, 190 nM and 190 nM, respectively.
For the compound `CC(=N)N1CCC(Oc2ccc3c(nc(C(C)C)n3Cc3ccc4ccc(C(=N)N)cc4c3)c2[N+](=O)[O-])CC1`, the Ki is 0.2 nM at Coagulation factor X, 3 nM at Serine protease 1 and above 5000 nM on Prothrombin.
For `CCc1nc2cc(OC3CCN(C(C)=N)CC3)ccc2n1Cc1ccc(-c2cccc(C(=N)N)c2)cc1`, in that order: 17 nM, 140 nM and 210 nM.
